For one assay, the system named is Human TLR7/8. In words: Human PBMC cell-based assay, TLR7/8 stimulus (RNA-Ig), cytokine ELISA. In outline: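 Healthy-donor human PBMC, 2×10^5 cells/well (1×10^5 in later assay), pre-treated 30 min with compound (0.1% DMSO). Stimulated 20 h at 37 °C with RNA-Ig: 26-mer U1 snRNA stem loop IV phosphorothioate RNA at 2.5 μM plus anti-ssDNA antibody (1:25 or 1 ug/ml). Supernatant cytokines by ELISA.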
Background: ELISA stands for enzyme-linked immunosorbent assay.

In the next assay the test system is Mouse Splenocytes. In words: Mouse spleen cell-based assay (R848, IL-6 ELISA). Conditions: Mus musculus, Splenocyte, BALB/c spleen cells, 370 nM R848. The procedure:
Mouse Spleen cell-based assay. Spleens were harvested from female BALB/c mice (Jackson Labs, Bar Harbor, Me.) euthanized by CO2. A single cell suspension was obtained by passing spleens through a 40 μm an nylon cell strainer. Cells were washed twice with 50 ml PBS (Mediatech, Inc., Manassas, Va.) and red blood cells were lysed in 5 ml RBC Lysis buffer (eBioscience, Inc., San Diego, Calif.) for 5 minutes at room temperature. Cells were washed twice more in PBS and finally resuspended in supplemented RPMI-1640 at 2.5×10^6 cells/ml. Cells were plated at 100 μl/well (2.5×10^5 cells/well) in 96-well tissue culture treated plates (Falcon). Serial dilutions of compounds solubilized in 100% DMSO were added in triplicate to cells to yield a final concentration of 0.1% DMSO. Cells were incubated with compound for 30 minutes at 37° C., 5% CO2 before adding 100 μl/well of 740 nM R848 (Resiquimod; GLSynthesis, Worcester, Mass.) in complete media for a final concentration of 370 nM R848. Cells were incubated for 20 hours at 37° C., 5% CO2. Culture supernatants were collected, and levels of IL-6 were assessed by standard ELISA procedure according to the manufacturer's recommended protocol (BD Biosciences, Inc., San Diego, Calif.).

[1] abbreviates: primary human PBMC assay, TLR7/8 potency, ligand not given, read-out: Human PBMCs IC50.

Read-outs that look alike come from different tables or passages of the source.

The IC50 is the concentration that inhibits the measured activity by half. Take `C[C@@H]1CN(c2ccc(C#N)c3ncccc23)C[C@H](CNC2CCCC2)O1` [ER-887145]: in the assay with Human TLR7/8 (setting [1]), the IC50 is 15 nM.

Consider `C[C@@H]1CN(c2ccc(C#N)c3ncccc23)C[C@H](CN2CCC(N3CCCCC3)CC2)O1` [ER-887927, 5-((2S,6R)-2-([1,4′-bipiperidin]-1′-ylmethyl)-6-methylmorpholino)quinoline-8-carbonitrile], for which the IC50 in the assay with Mouse Splenocytes worked out at 26 nM.

Consider `CC1CNC(=O)CN1C[C@H]1CN(c2ccc(C#N)c3ncccc23)C[C@@H](C)O1` (stereo partly shown) [ER-887722], for which the IC50 in the assay with Human TLR7/8 (setting [1]) came out at 65 nM; with Mouse Splenocytes it was 463 nM.

Take `C[C@@H]1CN(C[C@H]2CN(c3ccc(C#N)c4ncccc34)C[C@@H](C)O2)CCN1` [ER-887269]: the IC50 in the assay on Human TLR7/8 (setting [1]) is 1 nM.

For `C[C@@H]1CN(c2ccc(C#N)c3ncccc23)C[C@H](C)O1` [ER-878952], the figures for the IC50 with Human TLR7/8 (setting [1]) and in the assay on Mouse Splenocytes were 151 nM and 1610 nM, respectively.

For `C[C@@H]1CN(c2ccc(C#N)c3ncccc23)C[C@H](CN2CCC(O)CC2)O1` [ER-886953], in the assay with Human TLR7/8 (setting [1]), the IC50 came to 26 nM.

For the compound `CCN(CCO)CCCC(C)Nc1ccnc2cc(Cl)ccc12` (stereo not shown) [HCQ, hydroxychloroquine, reference compound], in the assay on Human TLR7/8 (Hu PBMC, ligand RNA-Ig, analyte IL-6, read-out: IC50), the IC50 lay in the range of 1000 to 2000 nM.

For `C[C@@H]1CN(c2ccc(C#N)c3ncccc23)C[C@H](C(=O)N[C@H]2CNC[C@H]2F)O1.Cl` [ER-899742, (2R,6R)-4-(8-cyanoquinolin-5-yl)-N-[(3S,4R)-4-fluoropyrrolidin-3-yl]-6-methylmorpholine-2-carboxamide hydrochloride], the IC50 amounted to 0.9 nM in the assay with Human TLR7/8 (Hu PBMC, ligand RNA-Ig, analyte IL-6) and 1 nM in the assay with Human TLR7/8 (read-out: Human PBMCs IC50, primary human PBMC assay, TLR7/8 potency, ligand not given). In addition, the “fold more potent versus HCQ” value with Human TLR7/8 (RNA-Ig TLR7/8 stimulus) was “approximately 1000 fold”.

For the compound `C[C@@H]1CN(c2ccc(C#N)c3ncccc23)C[C@H](CN2CC[C@H](O)C2)O1` [ER-886820], the IC50 in the assay on Human TLR7/8 (setting [1]) was determined as 62 nM.

Regarding `CC[C@H]1CN(C[C@H]2CN(c3ccc(C#N)c4ncccc34)C[C@@H](C)O2)CCN1` [ER-890963], the IC50 in the assay with Human TLR7/8 (setting [1]) stood at 2 nM; in the assay with Mouse Splenocytes it was 250 nM.

As for `C[C@@H]1CN(c2ccc(C#N)c3ncccc23)C[C@H](CN2CCN(C)CC2)O1` [ER-887723], the IC50 in the assay on Human TLR7/8 (setting [1]) worked out at 7 nM; in the assay with Mouse Splenocytes it was 47 nM.

`CCCN1CCN(C[C@H]2CN(c3ccc(C#N)c4ncccc34)C[C@@H](C)O2)CC1` [ER-887724]: the IC50 came to 6 nM in the assay on Human TLR7/8 (setting [1]) and 70 nM in the assay with Mouse Splenocytes.

As to `CC(=O)NC1CCN(CC2CN(c3ccc(C#N)c4ncccc34)CC(C)O2)CC1` (stereo not shown) [ER-888288], the results for the IC50 with Human TLR7/8 (setting [1]) and in the assay on Mouse Splenocytes were 15 nM and 135 nM, respectively.

Regarding `CC1CN(c2ccc(C#N)c3ncccc23)CC(CN2CCN(C)CC2C)O1` (stereo not shown) [ER-889556], the values for the IC50 in the assay with Human TLR7/8 (setting [1]) and in the assay on Mouse Splenocytes were 10 nM and 432 nM, respectively.

`CC1CN(c2ccc(C#N)c3ncccc23)CC(CN2CCC(NC(=O)C(C)C)CC2)O1` (stereo not shown) [ER-889745]: the IC50 is 46 nM in the assay with Human TLR7/8 (setting [1]) and 90 nM in the assay on Mouse Splenocytes.

`C[C@@H]1CN(c2ccc(C#N)c3ncccc23)C[C@H](C(=O)NC2CCN(C)CC2)O1` [ER-899464, (2R,6R)-4-(8-cyanoquinolin-5-yl)-6-methyl-N-(1-methylpiperidin-4-yl)morpholine-2-carboxamide]: the IC50 with Human TLR7/8 (setting [1]) is 1 nM.

Turning to `C[C@@H]1CN(c2ccc(C#N)c3ncccc23)C[C@H](CO)O1` [ER-885493, 5-((2R,6R)-2-(hydroxymethyl)-6-methylmorpholino)quinoline-8-carbonitrile], the results for the IC50 in the assay on Human TLR7/8 (setting [1]) and with Mouse Splenocytes were 180 nM and 517 nM, respectively.

For `C[C@@H]1CN(c2ccc(C#N)c3ncccc23)C[C@H](CN2CCNCC2)O1` [ER-887253], the values for the IC50 with Human TLR7/8 (setting [1]) and in the assay on Mouse Splenocytes were 1 nM and 49 nM, respectively.

For the compound `CC1CN(c2ccc(C#N)c3ncccc23)CC(CN2CCC(N(C)C)CC2)O1` (stereo not shown) [ER-887725], in the assay with Human TLR7/8 (setting [1]), the IC50 is 2 nM.

(Values after patent publication USRE47193E1, “Selectively substituted quinoline compounds” (EISAI R&D MANAGEMENT CO., LTD., priority 2013, dated 2019).)
